This series in a line: method code G-GLC, from DOI: 10.1021/je0101909.

`Clc1cc(-c2cc(Cl)c(Cl)c(Cl)c2Cl)cc(Cl)c1Cl` returned a log partition coefficient (logP) of 7.15.

For the molecule `Clc1ccc(-c2cc(Cl)c(Cl)c(Cl)c2Cl)cc1Cl`, the log partition coefficient (logP) amounted to 6.75.

With `Clc1ccc(-c2cc(Cl)c(Cl)c(Cl)c2)c(Cl)c1`, the log partition coefficient (logP) was determined as 6.5.

On to `Clc1cc(Cl)c(-c2cc(Cl)c(Cl)c(Cl)c2)cc1Cl`, for which the log partition coefficient (logP) was found to be 6.82. `Clc1ccc(-c2cc(Cl)c(Cl)c(Cl)c2)cc1` returned a logP of 6.53. The result for `Clc1ccc(-c2cc(Cl)c(Cl)cc2Cl)cc1Cl` reads 6.49. To `Clc1ccc(-c2ccc(Cl)c(Cl)c2Cl)cc1Cl` belongs 6.61.

Molecule `Clc1cc(-c2cc(Cl)c(Cl)c(Cl)c2)cc(Cl)c1Cl` registered a logP of 7.01. The result for `Clc1cc(-c2ccc(Cl)c(Cl)c2Cl)cc(Cl)c1Cl` reads 6.73; that for `Clc1ccc(-c2cc(Cl)c(Cl)c(Cl)c2Cl)cc1`, 6.47. To `Clc1ccc(-c2cc(Cl)c(Cl)c(Cl)c2)cc1Cl` belongs 6.56.

The values above are taken from the SangsterLogP compilation.
